Earlier results on 2 compounds are cited in paper PMC10238757 (Pharmacology Research & Perspectives, 2023).

The conditions of data set [1]: at higher doses; cited from earlier work.
Another data set concerns HIV-1. The conditions noted are these: cited from earlier work.

Structures are written as SMILES.

On to `C=C(C)[C@@H]1CC[C@]2(NCCN3CCS(=O)(=O)CC3)CC[C@]3(C)[C@H](CC[C@@H]4[C@@]5(C)CC=C(c6ccc(C(=O)O)cc6)C(C)(C)[C@@H]5CC[C@]43C)[C@@H]12` [GSK3532795], for which the absorption behaviour entry in data set [1] is reported as “plateaus in absorption”.

On to `C=C(C)[C@@H]1CC[C@]2(NCCN3CCS(=O)(=O)CC3)CC[C@]3(C)[C@H](CC[C@@H]4[C@@]5(C)CC=C(C6=CC[C@@](CF)(C(=O)O)CC6)C(C)(C)[C@@H]5CC[C@]43C)[C@@H]12` [GSK3640254, reference compound], for which, in data set [1], the absorption behaviour entry is given as “plateaus in absorption”. The potency in vitro entry with HIV-1 is “low nanomolar”.
